Read-outs that look alike come from different tables or passages of the source.
Assays:
hNSC = experiment: MMP assay in human neural stem cells (hNSC); type: cell-based
HepG2 cells [1] = experiment: ROS-Glo hydrogen peroxide (ROS) assay; type: cell-based, human; conditions: for EC50: read-out: ROS (HepG2) EC50
HepG2 cells [2] = experiment: Intracellular ATP content (cell viability) assay; type: cell-based, human
[3] = test system: p53 (p53-bla HCT-116 cells); experiment: p53 β-lactamase reporter gene assay; type: cell-based, human
[4] = test system: Nrf2/ARE (ARE-bla HepG2 cells); experiment: ARE β-lactamase reporter gene assay; type: cell-based, human
[5] = test system: isolated rat liver mitochondria; experiment: Oxygen consumption, Clark-type oxygen electrode; type: biochemical
HepG2 cells [6] = experiment: Oxygen consumption, Seahorse XF24 analyzer; type: cell-based, human
[7] = test system: HeLa cells expressing YFP-Parkin; experiment: Parkin translocation assay; type: cell-based, human
HepG2 cells [8] = test system: HepG2 cells
rat primary hepatocytes [9] = test system: rat primary hepatocytes
[10] = test system: Caenorhabditis elegans (Bristol N2); conditions: in vivo
[11] = test system: Caenorhabditis elegans strain PE255; conditions: in vivo
[12] = test system: Caenorhabditis elegans strain PE255; experiment: In vivo C. elegans ATP status assay
rat primary hepatocytes [13] = experiment: MMP assay in rat primary hepatocytes
[14] = test system: Caenorhabditis elegans (Bristol N2); experiment: C. elegans larval development and growth assay
HepG2 cells [15] = conditions: read-out: MMP assays IC50 (µM) qHTS-HepG2; cited from earlier work
HepG2 cells [16] = experiment: cells; conditions: Homo sapiens

N#CC(C#N)=NNc1ccc(OC(F)(F)F)cc1 [FCCP, carbonyl cyamide 4-(trifluoromethoxy)phenylhydrazone, reference compound]
hNSC (efficacy) (MMP) (hNSC): 0.27±0.08 ( −94.2±2.36 ) % | IC50 (hNSC; read-out: hNSC IC50 (MMP)): 270 nM | ROS (HepG2) (efficacy) (HepG2 cells [1]): 2.49±0.45 ( 35.9±5.66 ) % | EC50 (HepG2 cells [1]): 2490 nM | ATP (HepG2, galactose) (efficacy) (HepG2 cells [2]): 4.25±0.97 ( −91.9±3.75 ) % | ATP (HepG2, glucose) (efficacy) (HepG2 cells [2]): 2.90±0.72 ( −90.1±9.46 ) % | IC50 (HepG2 cells [2]; read-out: ATP (HepG2, galactose) IC50): 4250 nM | IC50 (HepG2 cells [2]; read-out: ATP (HepG2, glucose) IC50): 2900 nM | p53 (HCT-116) EC50 [3]: Inactive | ARE (HepG2) EC50 [4]: Inactive | Potential Mechanism [5]: Uncoupler at lower concentrations (0.032-0.16 µM), and Uncoupler + inhibitor at high concentrations (0.8 - 100 µM) | concentration at which RCR began to decrease [5]: 32 nM | concentration at which RCR reached unity (complete uncoupling) [5]: 4 µM | glutamate/malate-driven state 4 respiration, maximal increase over the baseline level [5]: approximately 4 fold | succinate-driven state 4 respiration, maximal response over the baseline level [5]: 2.6 fold | uncoupler effect at (concentration) in the oxygen consumption assay [5]: 0.032 µM | I-ADP, % of control (O2 consumption rate) ([5]; 0.0064 µM): 94 (46.6) % of control | I-sub, % of control (O2 consumption rate) ([5]; 0.0064 µM): 108 (14.9) % of control | II-ADP, % of control (O2 consumption rate) ([5]; 0.0064 µM): 96 (85.4) % of control | II-sub, % of control (O2 consumption rate) ([5]; 0.0064 µM): 90 (24.4) % of control | I-ADP, % of control (O2 consumption rate) ([5]; 0.032 µM): 100 (49.4) % of control | I-sub, % of control (O2 consumption rate) ([5]; 0.032 µM): 131 (18.2) % of control | II-ADP, % of control (O2 consumption rate) ([5]; 0.032 µM): 96 (85.4) % of control | II-sub, % of control (O2 consumption rate) ([5]; 0.032 µM): 126 (34.2) % of control | I-ADP, % of control (O2 consumption rate) ([5]; 0.16 µM): 115 (56.7) % of control | I-sub, % of control (O2 consumption rate) ([5]; 0.16 µM): 251 (34.8) % of control | II-ADP, % of control (O2 consumption rate) ([5]; 0.16 µM): 97 (86.6) % of control | II-sub, % of control (O2 consumption rate) ([5]; 0.16 µM): 260 (70.2) % of control | I-ADP, % of control (O2 consumption rate) ([5]; 0.8 µM): 125 (61.6) % of control | I-sub, % of control (O2 consumption rate) ([5]; 0.8 µM): 386 (53.5) % of control | II-ADP, % of control (O2 consumption rate) ([5]; 0.8 µM): 67 (59.7) % of control | II-sub, % of control (O2 consumption rate) ([5]; 0.8 µM): 247 (66.9) % of control | I-ADP, % of control (O2 consumption rate) ([5]; 4 µM): 74 (36.5) % of control | I-sub, % of control (O2 consumption rate) ([5]; 4 µM): 264 (36.5) % of control | II-ADP, % of control (O2 consumption rate) ([5]; 4 µM): 44 (39.6) % of control | II-sub, % of control (O2 consumption rate) ([5]; 4 µM): 189 (51.0) % of control | I-ADP, % of control (O2 consumption rate) ([5]; 20 µM): 73 (36.0) % of control | I-sub, % of control (O2 consumption rate) ([5]; 20 µM): 278 (38.5) % of control | II-ADP, % of control (O2 consumption rate) ([5]; 20 µM): 39 (34.6) % of control | II-sub, % of control (O2 consumption rate) ([5]; 20 µM): 165 (44.6) % of control | I-ADP, % of control (O2 consumption rate) ([5]; 100 µM): 86 (39.1) % of control | I-sub, % of control (O2 consumption rate) ([5]; 100 µM): 263 (40.0) % of control | II-ADP, % of control (O2 consumption rate) ([5]; 100 µM): 38 (27.2) % of control | II-sub, % of control (O2 consumption rate) ([5]; 100 µM): 98 (30.8) % of control | Activity in oxygen consumption (HepG2 cells [6]): Uncoupler+inhibitor | Parkin recruitment [7]: Active | Parkin translocation into mitochondria (in words) [7]: significantly increased Parkin translocation into mitochondria | HepG2 (efficacy) Galactose (MMP) (HepG2 cells [8]): 1.12±0.33 ( −94.6±1.13 ) % | HepG2 (efficacy) Glucose (MMP) (HepG2 cells [8]): 1.05±0.38 ( −95.8±2.94 ) % | IC50 (HepG2 cells [8]; read-out: HepG2 IC50 Galactose (MMP)): 1120 nM | IC50 (HepG2 cells [8]; read-out: HepG2 IC50 Glucose (MMP)): 1050 nM | Rat hepatocytes (efficacy) (MMP) (rat primary hepatocytes [9]): 0.35±0.06 ( −95.4±4.65 ) % | LEC (lowest effect concentration), larval growth assay [10]: < 10 µM | LEC (lowest effect concentration), ATP assay [11]: < 10 µM | LEC LUM: lowest effect concentration for luminescence, a measure of nematode ATP content ([12]; in vivo): 5 µM | IC50 (rat primary hepatocytes [13]; read-out: Rat hepatocytes IC50 (MMP)): 350 nM | LEC EXT: lowest effect concentration for extinction, a measure of nematode size ([14]; in vivo): 2.5 µM

CCOCn1c(-c2ccc(Cl)cc2)c(C#N)c(Br)c1C(F)(F)F [Chlorfenapyr]
EC50 (HepG2 cells [1]; Homo sapiens, HepG2, 2 h): 1930 nM | IC50 (HepG2 cells [2]; Homo sapiens, HepG2, 40 h, read-out: ATP (HepG2, galactose) IC50): 7010 nM | IC50 (HepG2 cells [2]; Homo sapiens, HepG2, 40 h, read-out: ATP (HepG2, glucose) IC50): 6410 nM | ARE (HepG2) EC50 ([4]; 16 h incubation, mean±SD of three experiments): Inactive | Potential Mechanism [5]: Uncoupler at low concentrations (0.16-20 µM), and Uncoupler + inhibitor at high concentration (100 µM) | effect on mitochondrial respiration (in words) [5]: effects similar to those of FCCP | uncoupler effect at (concentration) in the oxygen consumption assay [5]: 0.16 µM | I-ADP, % of control (O2 consumption rate) ([5]; 0.032 µM): 99 (43.1) % of control | I-sub, % of control (O2 consumption rate) ([5]; 0.032 µM): 116 (15.2) % of control | II-ADP, % of control (O2 consumption rate) ([5]; 0.032 µM): 99 (67.2) % of control | II-sub, % of control (O2 consumption rate) ([5]; 0.032 µM): 108 (22.5) % of control | I-ADP, % of control (O2 consumption rate) ([5]; 0.16 µM): 96 (41.8) % of control | I-sub, % of control (O2 consumption rate) ([5]; 0.16 µM): 131 (17.1) % of control | II-ADP, % of control (O2 consumption rate) ([5]; 0.16 µM): 112 (75.7) % of control | II-sub, % of control (O2 consumption rate) ([5]; 0.16 µM): 119 (24.9) % of control | I-ADP, % of control (O2 consumption rate) ([5]; 0.8 µM): 120 (52.1) % of control | I-sub, % of control (O2 consumption rate) ([5]; 0.8 µM): 242 (31.7) % of control | II-ADP, % of control (O2 consumption rate) ([5]; 0.8 µM): 106 (71.8) % of control | II-sub, % of control (O2 consumption rate) ([5]; 0.8 µM): 180 (37.6) % of control | I-ADP, % of control (O2 consumption rate) ([5]; 4 µM): 177 (76.8) % of control | I-sub, % of control (O2 consumption rate) ([5]; 4 µM): 544 (71.3) % of control | II-ADP, % of control (O2 consumption rate) ([5]; 4 µM): 124 (84.2) % of control | II-sub, % of control (O2 consumption rate) ([5]; 4 µM): 359 (75.1) % of control | I-ADP, % of control (O2 consumption rate) ([5]; 20 µM): 91 (39.4) % of control | I-sub, % of control (O2 consumption rate) ([5]; 20 µM): 324 (42.4) % of control | II-ADP, % of control (O2 consumption rate) ([5]; 20 µM): 80 (54.0) % of control | II-sub, % of control (O2 consumption rate) ([5]; 20 µM): 281 (58.7) % of control | I-ADP, % of control (O2 consumption rate) ([5]; 100 µM): 54 (28.6) % of control | I-sub, % of control (O2 consumption rate) ([5]; 100 µM): 277 (37.3) % of control | II-ADP, % of control (O2 consumption rate) ([5]; 100 µM): 35 (23.6) % of control | II-sub, % of control (O2 consumption rate) ([5]; 100 µM): 139 (30.2) % of control | effect on oxygen consumption rate, Seahorse (in words) (HepG2 cells [6]): effects similar to that of FCCP | Parkin recruitment [7]: Active | Parkin translocation into mitochondria (in words) ([7]; 3 h): patterns similar to antimycin A and FCCP | MMP assays efficacy (%) Rat Hepatocytes (rat primary hepatocytes [9]): -109±23% | Rat hepatocytes (efficacy) (MMP) (rat primary hepatocytes [9]): 0.34±0.11 ( −90.8±10.1 ) % | IC50 (HepG2 cells [15]): 0.07 ± 0.04 µM | inhibitory effect at (concentration) on larval growth in the C. elegans assay ([10]; Bristol N2 (wild type), Caenorhabditis elegans): 0.05 µM | inhibitory effect at (concentration) on ATP content in the C. elegans assay ([11]; PE255 [sur-5::luc+::gfp, rol-6(su1006)], Caenorhabditis elegans): 0.25 µM | IC50 (HepG2 cells [16]; HepG2, 1 h, read-out: HepG2 IC50 Galactose (MMP)): 1850 nM | IC50 (HepG2 cells [16]; HepG2, 1 h, read-out: HepG2 IC50 Glucose (MMP)): 1670 nM | IC50 (HepG2 cells [16]; HepG2, read-out: IC50 in HepG2 cells (MMP, tier-one retest)): 40 nM | Emax (HepG2 cells [16]; HepG2, read-out: MMP assays efficacy (%) HepG2): 109% | minimal effective concentration ([12]; Caenorhabditis elegans, read-out: LEC LUM: lowest effect concentration for luminescence, a measure of nematode ATP content): 0.25 µM | IC50 (rat primary hepatocytes [13]; Rattus norvegicus, Hepatocyte, 1 h, read-out: IC50 in rat primary hepatocytes (MMP, tier-one retest)): 70 nM | IC50 (rat primary hepatocytes [13]; Rattus norvegicus, Hepatocyte, 1 h, read-out: Rat hepatocytes IC50 (MMP)): 340 nM | larval growth effect at 0.5μM ([14]; 0.5 µM): severe larval growth arrest | minimal effective concentration ([14]; Caenorhabditis elegans, read-out: LEC EXT: lowest effect concentration for extinction, a measure of nematode size): 0.05 µM

Reference: PMC6112376, “Comprehensive Analyses and Prioritization of Tox21 10K Chemicals Affecting Mitochondrial Function by in-Depth Mechanistic Studies” (Environmental Health Perspectives, 2018)
